Structures can show the parent of a compound that is named as a salt. Where two headings read alike, the source gives them in different places.
Legend:
HFL1 = test: Cell-based assay, anti-proliferative activity (Cell Counting Kit-8, 72 hours); conditions: Homo sapiens; HFL1 cells, Cell Counting Kit-8, 72 hours; read-out: IC50 (μM) HFL1
How it was run: (§1)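 CCK-8 viability read 72 h after compound exposure over an 8-point series from 1.5625 to 100 micro-M plus zero. Seeding density 2,000–3,000 cells/well; IC50 from the dilution series.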

CCD-18Co = test: as above; conditions: Homo sapiens; CCD-18Co cells, Cell Counting Kit-8, 72 hours; read-out: IC50 (μM) CCD-18Co
How it was run: as §1

HCT-116 = test: as above; conditions: Homo sapiens; HCT-116 cells, Cell Counting Kit-8, 72 hours; read-out: IC50 (μM) HCT-116
How it was run: as §1

SUV39H2 [1] = target: T1, SUV39H2 (Homo sapiens (Human), UniProt Q9H5I1); test: biochemical
SUV39H2 [2] = target: T1, SUV39H2; conditions: read-out: IC50 (μM) Suv 39H2 assay; enzyme assay
A549 = test: Cell-based assay, anti-proliferative activity (Cell Counting Kit-8, 72 hours); conditions: Homo sapiens
How it was run: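 Seed cells in 96-well format; add inhibitors; measure growth by CCK-8 at end of exposure; derive IC50.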

PC14 = test: as above; conditions: Homo sapiens, PC-14; PC14 cells, Cell Counting Kit-8, 72 hours; read-out: IC50 (μM) PC14
How it was run: as §1

SUV39H2 [3] = target: T1, SUV39H2; test: biochemical; type: biochemical; conditions: 3H-SAM 100 nM, H3 Histone Peptide 350 nM, room temperature 3 hours
How it was run: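 Scintillation proximity format: reactions were halted with streptavidin SPA beads (50 μg/well final) after 3 h at room temperature with enzyme dosed by lot-specific activity.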

[4] = A549 cells, Cell Counting Kit-8, 72 hours, read-out: IC50 (μM) A549
[5] = A549 cells, 72 hours exposure, Cell Counting Kit-8, read-out: A549 IC50
[6] = A549, 72 h, read-out: A549 IC50

T1 sequence (Q9H5I1 whole entry): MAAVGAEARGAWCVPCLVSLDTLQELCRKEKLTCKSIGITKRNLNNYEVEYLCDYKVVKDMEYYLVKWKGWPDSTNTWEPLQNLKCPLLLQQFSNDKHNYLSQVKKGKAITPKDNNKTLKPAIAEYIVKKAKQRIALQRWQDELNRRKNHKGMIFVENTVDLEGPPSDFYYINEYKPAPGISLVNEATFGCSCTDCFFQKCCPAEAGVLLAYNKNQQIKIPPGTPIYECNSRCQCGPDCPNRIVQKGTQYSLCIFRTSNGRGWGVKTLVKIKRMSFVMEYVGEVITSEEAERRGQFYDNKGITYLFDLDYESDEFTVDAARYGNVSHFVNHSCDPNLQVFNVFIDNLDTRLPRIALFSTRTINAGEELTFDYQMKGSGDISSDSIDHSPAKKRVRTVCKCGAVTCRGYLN

| SMILES | IC50 (A549; [5]) | IC50 (SUV39H2 [3]) | further results |
| --- | --- | --- | --- |
| COc1cc(OC)c(-c2cn3ccc(N4CCN(C(C)C)CC4)cc3n2)cc1Cl [Example 100, 2-(5-chloro-2,4-dimethoxyphenyl)-7-(4-isopropylpiperazin-1-yl)imidazo-[1,2-a]pyridine] |  |  | IC50 (HFL1): 3.2 µM; IC50 (CCD-18Co): 5.8 µM; IC50 (HCT-116): 3.2 µM; IC50 (SUV39H2 [1]): 15.4 nM; IC50 (SUV39H2 [2]): 0.0136 µM; IC50 (A549; [4]): 5.6 µM |
| CCCS(=O)(=O)NC1CCN(c2ccn3cc(-c4cc(Cl)c(OC)cc4OC)nc3n2)CC1 [Example 193, N-(1-(2-(5-chloro-2,4-dimethoxyphenyl)imidazo[1,2-a]pyrimidin-7-yl)-piperidin-4-yl)propane-1-sulfonamide] |  |  | IC50 (PC14): 6.7 µM; IC50 (HFL1): 10 µM; IC50 (CCD-18Co): 10 µM; IC50 (HCT-116): 10 µM; IC50 (SUV39H2 [1]): 32.7 nM; IC50 (A549; [4]): 10 µM |
| COc1cc(OC)c(-c2cn3ccc(N4CCN(c5nccc(N6CCC(N)CC6)n5)CC4)cc3n2)cc1Cl [Example 437, 1-(2-(4-(2-(5-chloro-2,4-dimethoxyphenyl)imidazo[1,2-a]pyridin-7-yl)piperazin-1-yl)pyrimidin-4-yl)piperidin-4-amine] | 0.74 µM | 15.9 nM |  |
| COc1cc(OC)c(-c2cn3cc(Br)c(N4CC[C@H](NCc5ccncc5)C4)cc3n2)cc1Cl [Example 438, (S)-1-(6-bromo-2-(5-chloro-2,4-dimethoxyphenyl)imidazo[1,2-a]pyridin-7-yl)-N-(pyridin-4-ylmethyl)pyrrolidin-3-amine] | 2.4 µM | 23.1 nM |  |
| COc1cc(OC)c(-c2cn3ccc(N4CCN(c5nc(N)nc(N(C)C)n5)CC4)cc3n2)cc1Cl [Example 440, 6-(4-(2-(5-chloro-2,4-dimethoxyphenyl)imidazo[1,2-a]pyridin-7-yl)piperazin-1-yl)-N^2,N^2-dimethyl-1,3,5-triazine-2,4-diamine] | 0.62 µM | 35.8 nM |  |
| COc1cc(OC)c(-c2cn3ccc(N4CCN(c5ncc(N6CCC(N)CC6)cn5)CC4)cc3n2)cc1Cl [Example 441, 1-(2-(4-(2-(5-chloro-2,4-dimethoxyphenyl)imidazo[1,2-a]pyridin-7-yl)piperazin-1-yl)pyrimidin-5-yl)piperidin-4-amine] | 0.54 µM | 4.99 nM |  |
| COc1cc(OC)c(-c2cn3ccc(N4CCCN(CC5CCCC5)CC4)cc3n2)cc1Cl [Example 442, 2-(5-chloro-2,4-dimethoxyphenyl)-7-(4-(cyclopentylmethyl)-1,4-diazepan-1-yl)imidazo[1,2-a]pyridine] | 0.73 µM | 13.9 nM |  |
| COc1cc(OC)c(-c2cn3ccc(N[C@H]4C[C@H]5CC[C@@H](C4)N5CC4CCCC4)cc3n2)cc1Cl [Example 443, 2-(5-chloro-2,4-dimethoxyphenyl)-N-((1R,3r,5S)-8-(cyclopentylmethyl)-8-azabicyclo[3.2.1]octan-3-yl)imidazo[1,2-a]pyridin-7-amine] | 0.82 µM | 17.3 nM |  |
| COc1cc(OC)c(-c2cn3ccc(N[C@H]4C[C@H]5CC[C@@H](C4)N5C(=O)OC(C)(C)C)cc3n2)cc1Cl [Example 444, (1R,3r,5S)-tert-butyl 3-((2-(5-chloro-2,4-dimethoxyphenyl)imidazo[1,2-a]pyridin-7-yl)amino)-8-azabicyclo[3.2.1]octane-8-carboxylate] | 0.78 µM | 78 nM |  |
| COc1cc(OC)c(-c2cn3cc(-c4ccc(C#N)cc4)c(N4CC[C@H](N)C4)cc3n2)cc1Cl [Example 445, (S)-4-(7-(3-aminopyrrolidin-1-yl)-2-(5-chloro-2,4-dimethoxyphenyl)imidazo[1,2-a]pyridin-6-yl)benzonitrile dihydrochloride] |  | 85.9 nM | IC50 (A549; [6]): 0.94 µM |
| COc1cc(OC)c(-c2cn3ccc(N4CCN(c5nc(N)nc(NC(C)(C)C)n5)CC4)cc3n2)cc1Cl [Example 446, N^2-(tert-butyl)-6-(4-(2-(5-chloro-2,4-dimethoxyphenyl)imidazo[1,2-a]pyridin-7-yl)piperazin-1-yl)-1,3,5-triazine-2,4-diamine] | 0.43 µM | 97.4 nM |  |
| COc1cc(OC)c(-c2cn3ccc(N[C@H]4C[C@H]5CC[C@@H](C4)N5CC4CCN(C(=O)OC(C)(C)C)CC4)cc3n2)cc1Cl [Example 447, tert-butyl 4-(((1R,3r,5S)-3-((2-(5-chloro-2,4-dimethoxyphenyl)imidazo[1,2-a]pyridin-7-yl)amino)-8-azabicyclo[3.2.1]octan-8-yl)methyl)piperidine-1-carboxylate] | 0.44 µM | 85.2 nM |  |
| COc1cc(OC)c(-c2cn3ccc(N[C@H]4C[C@H]5CC[C@@H](C4)N5Cc4ccncc4)cc3n2)cc1Cl [Example 448, 2-(5-chloro-2,4-dimethoxyphenyl)-N-((1R,3r,5S)-8-(pyridin-4-ylmethyl)-8-azabicyclo[3.2.1]octan-3-yl)imidazo[1,2-a]pyridin-7-amine] | 0.34 µM | 22.6 nM |  |
| COc1cc(OC)c(-c2cn3ccc(N4CCN(c5ncnc(N6CCOCC6)n5)CC4)cc3n2)cc1Cl [Example 449, 4-(4-(4-(2-(5-chloro-2,4-dimethoxyphenyl)imidazo[1,2-a]pyridin-7-yl)piperazin-1-yl)-1,3,5-triazin-2-yl)morpholine] |  | 17.5 nM | IC50 (A549; [6]): 0.87 µM |
| COc1cc(OC)c(-c2cn3ccc(N4CCN(c5ncnc(N(C)C)n5)CC4)cc3n2)cc1Cl [Example 450, 4-(4-(2-(5-chloro-2,4-dimethoxyphenyl)imidazo[1,2-a]pyridin-7-yl)piperazin-1-yl)-N,N-dimethyl-1,3,5-triazin-2-amine] | 0.73 µM | 33.6 nM |  |
| CNc1ncnc(N2CCN(c3ccn4cc(-c5cc(Cl)c(OC)cc5OC)nc4c3)CC2)n1 [Example 451, 4-(4-(2-(5-chloro-2,4-dimethoxyphenyl)imidazo[1,2-a]pyridin-7-yl)piperazin-1-yl)-N-methyl-1,3,5-triazin-2-amine] | 0.46 µM | 17 nM |  |
| COc1cc(OC)c(-c2cn3ccc(N[C@H]4C[C@H]5CC[C@@H](C4)N5CC(C)(C)C)cc3n2)cc1Cl [Example 452, 2-(5-chloro-2,4-dimethoxyphenyl)-N-((1R,3r,5S)-8-neopentyl-8-azabicyclo[3.2.1]octan-3-yl)imidazo[1,2-a]pyridin-7-amine] | 0.83 µM | 42.6 nM |  |
| COc1cc(OC)c(-c2cn3ccc(N4CCC(C(=O)NC5CCCCC5)CC4)cc3n2)cc1Cl [Example 453, 1-(2-(5-chloro-2,4-dimethoxyphenyl)imidazo[1,2-a]pyridin-7-yl)-N-cyclohexylpiperidine-4-carboxamide] | 0.54 µM | 10.5 nM |  |
| COc1cc(OC)c(-c2cn3ccc(N4CCC[C@H](NCC5CCN(C(=O)OC(C)(C)C)CC5)C4)cc3n2)cc1Cl [Example 454, (S)-tert-butyl 4-(((1-(2-(5-chloro-2,4-dimethoxyphenyl)imidazo[1,2-a]pyridin-7-yl)piperidin-3-yl)amino)methyl)piperidine-1-carboxylate] | 0.76 µM | 27 nM |  |
| COc1cc(OC)c(-c2cn3ccc(N4CCC[C@H](NCC5CCCCC5)C4)cc3n2)cc1Cl [Example 455, (S)-1-(2-(5-chloro-2,4-dimethoxyphenyl)imidazo[1,2-a]pyridin-7-yl)-N-(cyclohexylmethyl)piperidin-3-amine] | 0.92 µM | 12.3 nM |  |
| COc1cc(OC)c(-c2cn3ccc(N4CCC(C(=O)Nc5ccccc5)CC4)cc3n2)cc1Cl [Example 456, 1-(2-(5-chloro-2,4-dimethoxyphenyl)imidazo[1,2-a]pyridin-7-yl)-N-phenylpiperidine-4-carboxamide] | 0.63 µM | 25.5 nM |  |
| COc1cc(OC)c(-c2cn3ccc(N[C@H]4C[C@H]5CC[C@@H](C4)N5C(=O)c4ccccc4)cc3n2)cc1Cl [Example 457, ((1R,3r,5S)-3-((2-(5-chloro-2,4-dimethoxyphenyl)imidazo[1,2-a]pyridin-7-yl)amino)-8-azabicyclo[3.2.1]octan-8-yl)(phenyl)methanone] | 0.82 µM | 34.8 nM |  |
| CNC1CCN(c2cnc(N3CCN(c4ccn5cc(-c6cc(Cl)c(OC)cc6OC)nc5c4)CC3)nc2)CC1 [Example 458, 1-(2-(4-(2-(5-chloro-2,4-dimethoxyphenyl)imidazo[1,2-a]pyridin-7-yl)piperazin-1-yl)pyrimidin-5-yl)-N-methylpiperidin-4-amine] | 0.42 µM | 17.5 nM |  |
| COc1cc(OC)c(-c2cn3ccc(N4CCC(CNC(=O)OC(C)(C)C)C4)cc3n2)cc1Cl (stereo not shown) [Example 459, tert-butyl ((1-(2-(5-chloro-2,4-dimethoxyphenyl)imidazo[1,2-a]pyridin-7-yl)pyrrolidin-3-yl)methyl)carbamate] | 0.99 µM | 7.69 nM |  |
| COc1cc(OC)c(-c2cn3ccc(N4CCC(C(=O)NC5CCN(C(=O)OC(C)(C)C)CC5)CC4)cc3n2)cc1Cl [Example 460, tert-butyl 4-(1-(2-(5-chloro-2,4-dimethoxyphenyl)imidazo[1,2-a]pyridin-7-yl)piperidine-4-carboxamido)piperidine-1-carboxylate] | 0.69 µM | 20.7 nM |  |

— US10508109B2 (priority 2015, dated 2019)
